Results on two compounds are retold here after patent US20240108739A1, “OLIGOMERIC COMPOUNDS BINDING SPECIFICALLY TO PROTEOGLYCANS” (PHI PHARMA SA, priority 2020, published 2024).

The structures appear in SMILES notation. Positions of bridges follow the written chain, without caps; N, C: chain ends. Non-standard residues stand in square brackets, D forms with d. Residues, ends and D or L forms follow the SMILES beside them. Chains are numbered I, II in the order given. ξ: configuration not given here. *: point of attachment. X2 = O=C(CCCCCN1C(=O)CC(*)C1=O)NNC(=O)CCCCC1SC[C@H]2NC(=O)N[C@@H]12; ξIle = CC[C@H](C)C(N)C(=O)O; Orn = NCCC[C@H](N)C(=O)O

Common to all, as to format: cell-based
Experiment [1] relates to CHO-pgsA-745 cells (GAG-deficient mutant). The experiment in a line: Flow cytometry binding of biotinylated compounds to CHO cells (Example 3). The conditions noted are these: 30 min at 4 °C, streptavidin-680RD fluorescence; FIG. 3B. The procedure: (§1) Cell lines in exponential growth phase were cultured in complete culture medium with 10% FBS and grown in 75 cm^2 cell culture flasks. On the day of the experiment, cells were harvested and transferred in V-bottom culture plates, washed with PBS 1× supplemented with BSA 3% and then incubated with (51-hS)2KC-Mal-Biotin, (51-hS)2KS-(51-hS)KC-Mal-Biotin, [(51-hS)2KS]2KK(Biotin) and VAR2-Biotin for 30 min at 4° C. in PBS 1× supplemented with BSA 3% (and eventually PEG600 2%) at various dilutions (serial dilutions).
(§2) After the incubation, cells were washed in PBS 1× supplemented with BSA 3%. For visualization, cells were incubated for 15 min at 4° C. with streptavidin coupled to 680RD fluorochrome. After the incubation, cells were washed in PBS 1× supplemented with 3% BSA and then incubated for at least 15 min at 4° C. with 4′,6-diamidino-2-phenylindole (DAPI) (Thermo Fisher Scientific) in order to exclude dead cells. Samples were directly applied to a flow cytometer. Data generated on the flow cytometer was analyzed using Flowjo™ 10.6.0.
On the technique in general: Flow cytometry measures light scatter and fluorescence of single cells or particles in a stream.

The subject of experiment [2] is U937 (lymphoma) cells. Nature of the experiment: Flow cytometry binding to tumor cell lines (Example 5). The settings on record: FIG. 6. The procedure:
(§3) Tumor cell lines in exponential growth phase were cultured in complete culture medium with 10% FBS and grown in 75 cm^2 cell culture flasks. On the day of the experiment, cells were harvested and transferred in V-bottom culture plates, washed with PBS 1× supplemented with BSA 3% and then incubated with the compounds for 30 min at 4° C. in PBS 1× supplemented with BSA 3% and PEG600 2% at various dilutions (serial dilutions).
(§4) After the incubation, cells were washed in PBS 1× supplemented with BSA 3%. For biotinylated compounds, cells are then incubated for 15 min at 4° C. with streptavidin coupled to 680RD fluorochrome.
(§5) After the incubation, cells were washed in PBS 1× supplemented with 3% BSA and then incubated for at least 15 min at 4° C. with DAPI (Thermo Fisher Scientific) in order to exclude dead cells and samples are directly applied to a flow cytometer. Data generated using the flow cytometer was analyzed using Flowjo™10.6.0 Fluorescence geometric mean (via the use of streptavidin-680RD) of samples was standardized by subtracting the fluorescence geometric mean of the negative control (no compound) and the addition of 1. Experimental design is outlined in Table 9.

Experiment [3] relates to HL-60 (leukemia) cells. The description is as above. The settings on record: FIG. 6. The procedure: as §3, §4, §5
The test system of experiment [4] is CHO-K1 cells (wild type, GAG present). The experiment in a line: Flow cytometry binding of biotinylated compounds to CHO cells (Example 3). The settings on record: 30 min at 4 °C, streptavidin-680RD fluorescence; FIG. 3A. The procedure: as §1, §2

`CC[C@H](C)C(NC(=O)[C@H](CCCNC(=N)N)NC(=O)[C@H](NC(=O)[C@H](Cc1ccccc1)NC(=O)[C@H](Cc1ccc(O)cc1)NC(=O)[C@H](CCCNC(=N)N)NC(C)=O)C(C)C)C(=O)N[C@@H](CCCN)C(=O)N[C@@H](Cc1ccc(O)cc1)C(=O)N[C@@H](CCCNC(=N)N)C(=O)N[C@H](Cc1c[nH]cn1)C(=O)N[C@@H](CO)C(=O)N[C@@H](CCCCNC(=O)[C@H](CO)NC(=O)[C@@H](Cc1c[nH]cn1)NC(=O)[C@H](CCCNC(=N)N)NC(=O)[C@H](Cc1ccc(O)cc1)NC(=O)[C@H](CCCN)NC(=O)[C@@H](NC(=O)[C@H](CCCNC(=N)N)NC(=O)[C@H](NC(=O)[C@H](Cc1ccccc1)NC(=O)[C@H](Cc1ccc(O)cc1)NC(=O)[C@H](CCCNC(=N)N)NC(C)=O)C(C)C)[C@@H](C)CC)C(=O)N[C@@H](CSC1CC(=O)N(CCCCCC(=O)NNC(=O)CCCCC2SC[C@H]3NC(=O)N[C@@H]23)C1=O)C(N)=O` (some centres unmarked) [(51-hS)2KC-Mal-Biotin] (I: Ac-RYF[dV]R[ξIle][Orn]YR[dH]SKC(X2)-NH2 / II: Ac-RYF[dV]RI[Orn]YR[dH]S; amide I:12-II:C): the “reduction of fluorescence on CHO-pgsA-745 as compared with fluorescence on CHO-K1 cells” value in experiment [1] came to 4.6 fold. Moreover, in experiment [2], the “reduction of binding on U937 cells as compared with (51-hS)2KS-(51-hS)KC-Mal-Biotin” value is on record as “at least 10 ×”. In addition, the “reduction of binding on HL-60 cells as compared with (51-hS)2KS-(51-hS)KC-Mal-Biotin” value in experiment [3] was “at least 10 ×”.
In the case of `CC[C@H](C)C(NC(=O)[C@H](CCCNC(=N)N)NC(=O)[C@H](NC(=O)[C@H](Cc1ccccc1)NC(=O)[C@H](Cc1ccc(O)cc1)NC(=O)[C@H](CCCNC(=N)N)NC(C)=O)C(C)C)C(=O)N[C@@H](CCCN)C(=O)N[C@@H](Cc1ccc(O)cc1)C(=O)N[C@@H](CCCNC(=N)N)C(=O)N[C@H](Cc1c[nH]cn1)C(=O)N[C@@H](CO)C(=O)N[C@@H](CCCCNC(=O)[C@H](CO)NC(=O)[C@@H](Cc1c[nH]cn1)NC(=O)[C@H](CCCNC(=N)N)NC(=O)[C@H](Cc1ccc(O)cc1)NC(=O)[C@H](CCCN)NC(=O)[C@@H](NC(=O)[C@H](CCCNC(=N)N)NC(=O)[C@H](NC(=O)[C@H](Cc1ccccc1)NC(=O)[C@H](Cc1ccc(O)cc1)NC(=O)[C@H](CCCNC(=N)N)NC(C)=O)C(C)C)[C@@H](C)CC)C(=O)N[C@@H](CO)C(=O)N[C@@H](CCCCNC(=O)[C@H](CO)NC(=O)[C@@H](Cc1c[nH]cn1)NC(=O)[C@H](CCCNC(=N)N)NC(=O)[C@H](Cc1ccc(O)cc1)NC(=O)[C@H](CCCN)NC(=O)[C@@H](NC(=O)[C@H](CCCNC(=N)N)NC(=O)[C@H](NC(=O)[C@H](Cc1ccccc1)NC(=O)[C@H](Cc1ccc(O)cc1)NC(=O)[C@H](CCCNC(=N)N)NC(C)=O)C(C)C)[C@@H](C)CC)C(=O)N[C@@H](CSC1CC(=O)N(CCCCCC(=O)NNC(=O)CCCCC2SC[C@H]3NC(=O)N[C@@H]23)C1=O)C(N)=O` (some centres unmarked) [(51-hS)2KS-(51-hS)KC-Mal-Biotin] (I: Ac-RYF[dV]R[ξIle][Orn]YR[dH]SKSKC(X2)-NH2 / II: Ac-RYF[dV]RI[Orn]YR[dH]S / III: Ac-RYF[dV]RI[Orn]YR[dH]S; amide I:12-II:C, I:14-III:C), the “reduction of fluorescence on CHO-pgsA-745 as compared with fluorescence on CHO-K1 cells” value in experiment [1] was 209.9 fold. Also, the “binding on CHO-K1 cells, times better than (51-hS)2KC-Mal-Biotin” value in experiment [4] turned out to be 17.9 ×.
